The subject of assay [1] is A549 cells (KRAS-mutant NSCLC). The conditions noted are these: 4 weeks, crystal violet staining. The protocol: 100,000 cells were seeded in 6-well plates, allowed to adhere overnight, and then incubated with media containing vehicle or drug as indicated for 4 weeks. Media (and drug) were replaced weekly. At 4 weeks plates were, fixed with 1% paraformaldehyde, and then stained with 0.1% crystal violet as previously described (medicine.yale.edu/lab/kim/resources/protocols/cell/crystal- violet_stain.aspx) to assess colony formation. Results were quantified using an ImageJ Colony Area PlugIn.^44

Assay [2] relates to RT112 bladder carcinoma cells (FGFR3-dependent). The assay is described as follows: Colony formation assay in RT112 cells. It is filed as cell-based, human. The conditions noted are these: for colony formation: 4 weeks, crystal violet staining, relative to control; for colony formation, transcription inhibitor alone or in combination with BGJ398: one week, 24-well plate (FIG. 35). An excerpt: Media (and drug) were replaced weekly.

The subject of assay [3] is gene expression in RT112 cells. The assay is described as follows: RNA-Seq gene expression in RT112 cells. It is filed as cell-based, human. The conditions noted are these: for gene expression (transcriptional programs) by RNAseq: BGJ398 1 μM, THZ1 100 nM, one or seven days.
Experimental: (§3) RNA was isolated from untreated RT112 cells and RT112 cells treated with 1 μM BGJ398, 100 nM THZ1, or combination treatment with THZ1 plus BGJ398, and similarly, untreated PC9 cells and PC9 cells treated with 1 μM erlotinib, 100 nM THZ1, or THZ1 plus erlotinib. Both cell lines were harvested at two time-points: following one day or seven days of treatment. Cell number was determined and total RNA was isolated using the RNeasy micro kit (Qiagen). Ambion® ERCC RNA Spike-In Mix (Life technology) was added to total RNA. cDNA libraries were prepared using the NEBNext® Ultra™ RNA Library Prep Kit for Illumina (New England Biolabs) according to the manufacturer's instructions. Library integrity was assessed on an Agilent 2100 Bioanalyzer (Agilent). Sequencing was performed on the Hiseq 2000 platform (Illumina) to a minimum depth of 30 million reads per sample.
(§4) QC-passed reads were aligned to the human reference genome (hg19) using PRADA.^46 Transcript per million (TPM) values were determined using RSEM.^47 TPM values were normalized with the voom transformation.^48 Expression changes for each gene in treated cells compared to untreated controls was determined using the limma package^49 as log 2-transformed fold change and a multiple-testing adjusted p-value. Heatmap visualization was performed using R. Log 2-transformed fold changes were not scaled and were colored on a blue-red scale.
(§5) Differentially expressed genes (defined as log 2-fold change value greater than 1.5 or less than −1.5, and p-value less than 0.01) were input into Ingenuity Pathway Analysis (www.ingenuity.com), to identify a) enriched pathways, 2) upstream regulators, andd 3) downstream effectors. […] We considered an activation z-score of greater than [2] to be activated, and less than [−2] to be inhibited. Gene ontology term (GO-term) enrichment analysis was performed using the Database for Annotation, Visualization and Integrated Discovery (DAVID) v6.7 (david.abcc.ncifcrf.gov/).
The subject of assay [4] is H3K27Ac enhancer signal in RT112 cells. The assay is described as follows: H3K27Ac ChIP-Seq in RT112 cells. Type of assay: cell-based, human. Conditions: seven days of treatment, vs DMSO. The protocol: RT112 and PC9 cells treated for seven days with vehicle, 1 μM BGJ398 and erlotinib (respectively), 100 nM THZ1, or BGJ398/erlotinib in combination with THZ1. H3K27Ac ChIP-Seq was performed using Abcam antibody (cat # AB4729, lot # GR183922-1) as previously described,^8 with minor modifications (cells were crosslinked for 20 min, Dynal magnetic beads (Sigma) were bound with 10 μg of the indicated antibody).
Illumina sequencing libraries were generated and data was processed as described elsewhere.^50 In brief, libraries were generated for ChIP samples following the Illumina TruSeq™ DNA Sample Preparation v2 kit protocol with minor changes. All ChIP-Seq data sets were aligned using bowtie 1.0.1 to build […] of the human genome with -p 4—best -k 2 -m 2—sam -1 40. Wiggle files for gene tracks were created using Macs 1.4.2 with options -w -S -space=50 to count reads in 50 bp bins.
Regions enriched in H3K27Ac were identified using SICER^51 with corresponding input DNA control, and parameters -t 1 (max 1 read per position), -w 200 (window size 200), -i 150 (fragment size), -g 200 (gap size 200; 1 window), -t 0.74 (interrogable genome fraction), -e 200 (e-value), -p 1e-9 (significance p value cutoff). […]
Density of H3K27Ac ChIP-Seq signal (FIG. 51F) was calculated using bamToGFF (github.com/BradnerLab/pipeline). […]

The next assay concerns RT112 cells. The assay is described as follows: Resistance emergence in RT112 cells under BGJ398 treatment (FIG. 1). Type of assay: cell-based, human. An excerpt: One mechanism of resistance may be through the upregulation of NRG1 due to signaling via ERBB2/ERBB3 and is rapid (a matter of days) and reversible (Wang et al., Oncogene, 2015, 34(17):2167-77). The resistance may also be associated with EMT.

Assay [5] has as its system signaling pathways in PC9 cells. The experiment in a line: Western blot / immunoblot of signaling pathways in PC9 cells. Type of assay: cell-based. Conditions: 24 hours, erlotinib 1 μM, THZ1 100 nM. As for the experimental part:
(§1) Cells were lysed in RIPA buffer (Roche) containing protease inhibitors (Roche) and Phosphatase Inhibitor Cocktails I and II (CalBioChem). Protein concentrations were determined using a Bradford assay (Bio-Rad). Proteins were separated by SDS gel electrophoresis using NuPAGE 4-12% Bis-Tris gels (Life Technologies) in MOPS buffer. Resolved protein was transferred to nitrocellulose membranes, blocked in 10% milk and probed with primary antibodies recognizing EGFR (2232S), p-EGFR (2234S), FGFR3 (4574S), p-FGFR (3471S), HER2/ERBB2 (2165), p-ERBB2 (2243S), STAT1 (9172), p-STAT1 (9167), STAT3 (4904S), p-STAT3 (9145S), AKT (9272S), p-AKT (4060P), ERK (4695S), p-ERK (4370S), FRA1 (5281S), CDK12 (11973) (all from Cell Signaling Technology), CDK7 (sc-723, Santa Cruz), actin (A5441, Sigma-Aldrich) and vinculin (V9131, Sigma-Aldrich) in 5% milk or 3% bovine serum albumin as recommended by the manufacturer. After incubation with the appropriate secondary antibody (Pierce anti-mouse IgG/IgM (31444, Thermo Scientific) and anti-rabbit IgG (31460, Thermo Scientific)), blots were imaged on film.
Western blots were used to characterize the signaling pathways in selected cell lines. The assays were performed at 24 hours under the following conditions: untreated, treated with 1 μM erlotinib, treated with 100 nM THZ1, or treated with a combination of erlotinib and THZ1, in PC9 and RT112 cells. These doses were also used in the colony formation assays and the RNAseq and ChIPseq experiments. […] However, it could be blocking the activation of downstream STAT3 targets. […] FGFR is known to be a bypass mechanism in PC9, but this was not seen with THZ1 treatment or with the combination treatment. […] This is unexpected, given that THZ1 should block CDK7-mediated RNAPII phosphorylation. This may be due to the dose or the time point assayed.
For orientation: In western blotting, separated proteins are transferred to a membrane and probed.

Assay [6] concerns signaling pathways in RT112 cells. The experiment in a line: Western blot / immunoblot of signaling pathways in RT112 cells. It is filed as cell-based, human. The conditions noted are these: 24 hours. As for the experimental part:
as §1
Western blots were used to characterize the signaling pathways in selected cell lines. […] These doses were also used in the colony formation assays and the RNAseq and ChIPseq experiments. […] However, it could be blocking the activation of downstream STAT3 targets. […] FGFR is known to be a bypass mechanism in PC9, but this was not seen with THZ1 treatment or with the combination treatment. […] This is unexpected, given that THZ1 should block CDK7-mediated RNAPII phosphorylation. This may be due to the dose or the time point assayed.

Assay [7] concerns signaling pathways in A549 cells. The experiment in a line: Western blot / immunoblot of signaling pathways in A549 cells. The conditions noted are these: 24 hours. It is filed as cell-based. The protocol: as §1
(§2) These two lines were both shown in Sharma et al. (Cell, 2010, 141(1):69-80) to employ the STAT3 feedback loop. p-ERK was decreased in the combination treatment arm. […] Therefore, there are some generalizable findings across the four lines.

In assay [8] the test system is signaling pathways in H23 cells. The experiment in a line: Western blot / immunoblot of signaling pathways in H23 cells. Type of assay: cell-based. Conditions: 24 hours. As for the experimental part: as §1, §2
The subject of a further assay is IL-6. The experiment in a line: IL-6 in PC9 cell culture supernatants (Luminex cytokine assay, ELISA). It is filed as cell-based. Conditions: PC9 cells; erlotinib 1 μM, THZ1 100 nM; 24 and 72 hours. As for the experimental part:
A Luminex Multiplex Custom Cytokine assay was used to assay cytokines in RT112 and PC9 cell culture supernatants treated with vehicle, 1 μM BGJ398 or erlotinib respectively, 100 nM THZ1, or THZ1 in combination with BGJ398 or erlotinib, at 24 and 72 hours. Cytokines assayed for were: CCL2/MCP-1, CCL5/RANTES, CXLC5, IL-1 alpha and beta, IL-2, IL-4, IL-5, IL-6, IL-8, IL-10, IL-17a, GM-CSF, TNF-alpha, VEGF, INF-gamma. IL-6 was also assayed in cell culture supernatants using the Quantikine IL-6 ELISA kit (D6050, R&D Systems) as per the manufacturer's protocol.
(In general: ELISA stands for enzyme-linked immunosorbent assay.)

In assay [9] the test system is gene expression in PC9 cells. The assay is described as follows: RNA-Seq gene expression in PC9 cells. Conditions: erlotinib 1 μM, THZ1 100 nM, one or seven days.
Experimental: as §3, §4, §5
The subject of assay [10] is EGFR-T790M-L858R; p53-R172H lung tumors. It is filed as in vivo. The conditions noted are these: TLP mice. An excerpt: Mice (both male and female) bred to contain conditional EGFR-T790M-L858R lox-stop-lox (LSL) allele and the p53-dominant negative R172H LSL allele to a final genotype of EGFR-T790M-L858R^LSL/−; p53-R172H^LSL/− maintained on a mixed background, were induced at 6 weeks of age with Adenovirus-Cre recombinase by intranasal administration^45 to allow for mediated recombination of lox-stop-lox modified mutant-EGFR and p53 alleles. […] Mice were imaged using a 7 Tesla BioSpec (Bruker Biospin) optimized for image requisition of pulmonary parenchyma and vessels in mice. Animals were anesthetized with 2% isoflurane IsoFlo; Abbott) in 100% oxygen via a nose cone. Respiratory and cardiac gating was applied to minimize motion artifacts during imaging. 24 slices (1 mm) were collected. Tumor volume per animal was quantified manually, based on a minimum of eight consecutive axial image sequences, using the 3D Slicer. […] Investigators were not blinded to group allocation. Mice were imaged biweekly by MRI until end-stage disease to determine tumor volume. Mice weights and signs of toxicity were monitored daily during the course of treatment. End-stage disease was reached when animals acquired clinical symptoms secondary to their lung tumors, in accordance with Dana Farber Cancer Institute Animal Care and Use Committee regulations.

The values below come from patent publication US10702527B2, “Combination therapy of transcription inhibitors and kinase inhibitors” (Dana-Farber Cancer Institute, Inc., priority 2015, dated 2020).

“Also recorded” adds a separate entry of the source.

Consider `C[C@@H](Oc1cc(-c2cnn(C3CCNCC3)c2)cnc1N)c1c(Cl)ccc(F)c1Cl` [crizotinib], for which the colony formation entry in assay [1] is listed as “ineffective”.

Take `CCN1CCN(c2ccc(Nc3cc(N(C)C(=O)Nc4c(Cl)c(OC)cc(OC)c4Cl)ncn3)cc2)CC1` [BGJ398]: the colony formation result in assay [2] is “comparable to control”. For the same compound, the “gene expression (transcriptional programs) by RNAseq” value in assay [3] is “transcriptionally distinct from the parental population; also recorded: up-regulated the expression of genes involved in pro-survival programs”. For the same compound, the “gene expression of the top 200 up-regulated genes with BGJ398 treatment” value in assay [3] (log2-normalized FPKM, two-tailed t-test) is “significant increase in gene expression”. In assay [4], the “H3K27Ac ChIP-Seq signal at enhancers” value was “significant increase in H3K27Ac signal”. For the same compound, the resistance emergence entry in the assay with RT112 cells is “led to resistance emergence”.

Consider `C[C@H](CCC(=O)O)[C@H]1CC[C@H]2[C@@H]3CC[C@@H]4C[C@H](O)CC[C@]4(C)[C@H]3C[C@H](O)[C@]12C` [DCA], for which, in assay [2], the “colony formation, transcription inhibitor alone or in combination with BGJ398” value is recorded as “modest results, even in combination”.

Regarding `C=CC(=O)Nc1cccc(Nc2cc(N3CCCCC3CCO)nc3c(CC)cnn23)c1` (stereo not drawn) [E9], the “colony formation, transcription inhibitor alone or in combination with BGJ398” value in assay [2] is on record as “works as well as THZ1”.

Take `CN(C)C/C=C/C(=O)Nc1ccc(C(=O)Nc2cccc(Nc3ncc(Cl)c(-c4c[nH]c5ccccc45)n3)c2)cc1` [THZ1]: the colony formation result in [2] is “comparable to control”. Further, the FRA1 protein levels result in assay [5] is listed as “nor did it restore FRA1 levels”; in [6] (BGJ398 1 μM, THZ1 100 nM), “nor did it restore FRA1 levels”. Further, the RNAPII phosphorylation entry in [5] is reported as “increase in RNAPII phosphorylation”; in assay [6], “increase in RNAPII phosphorylation”; in [7], “again increased”; in assay [8], “again increased”. Besides, the STAT1 phosphorylation entry in assay [5] is reported as “blocked STAT1 phosphorylation”; in assay [6] (BGJ398 1 μM, THZ1 100 nM), “blocked STAT1 phosphorylation”. Besides, the FGFR activation result in [5] (alone or combined) is “not seen; also recorded: blocked”. The “p-STAT3 (STAT3 phosphorylation/activation)” value was “does not inhibit the feedback activation of STAT3; also recorded: not blocking the activation of p-STAT3; also recorded: did not affect the phosphorylation status of STAT3” in assay [5] (alone or combined) and “does not inhibit the feedback activation of STAT3; also recorded: did not affect the phosphorylation status of STAT3; also recorded: not blocking the activation of p-STAT3” in [6] (BGJ398 1 μM, THZ1 100 nM, alone or combined). The ERBB2 activation entry in assay [6] is “blocked ERBB2 activation”. In addition, in the assay with IL-6, the “IL-6 levels in cell culture supernatants” value is “suppressed the increase in IL-6 levels”. In addition, the “gene expression (transcriptional programs) by RNAseq” value in assay [3] and in assay [9] was “attenuation of these programs” throughout.

Consider `C=CC(=O)Nc1cccc(Oc2nc(Nc3ccc(N4CCN(C)CC4)cc3OC)ncc2Cl)c1` [WZ4002], for which the “time to end-stage disease” value in [10] is listed as “end-stage disease by five weeks”. Besides, the “tumor response by MRI at two weeks” value in assay [10] (WZ4002 50 mg/kg QD oral gavage) is given as “initial response”. In addition, in [10] (WZ4002 50 mg/kg QD oral gavage, THZ1 10 mg/kg BID i.p.), the “tumor response by MRI at four weeks” value is “rapidly developed resistance and rebounded”.
